These results are taken from publication PMC3866693 (Journal of medicinal chemistry, 2013).

The subject of series [1] is mGluR1 in monkey brain. Description: PET baseline experiment in rhesus monkey, brain radioactivity uptake. The series is classed as in vivo, rhesus monkey (Macaca mulatta).
The next series addresses mGluR5 in monkey brain (Macaca mulatta, UniProt A0ACM8QRY8). Description: PET challenge experiment with mGluR5-selective ligand in rhesus monkey. The series is classed as in vivo, rhesus monkey (Macaca mulatta). The note with it: 5 mg/kg i.v. at 30 min after [^18F]11, third monkey.
Series [2] has as its system human mGluR1. The note with it: read-out: IC50 (affinity for mGluR1); human mGluR1, reported; cited from earlier work.
Series [3] concerns the target mGluR1 in monkey brain (Macaca mulatta, UniProt I2CU04). The series can be described thus: PET preblock and challenge experiments with mGluR1 antagonist in rhesus monkey. In kind it is in vivo, rhesus monkey (Macaca mulatta).
Series [4] concerns human mGluR1. The note with it: VS = fP × Bmax/KD; cited from earlier work.
The next series concerns rat mGluR1. The note with it: VS = fP × Bmax/KD; cited from earlier work.
Another series has as its target GABAA. The series can be described thus: NIMH PDSP binding screen. Set-up: species or system human.
The target of a further series is rat BZP site. Description: NIMH PDSP binding screen.
The conditions of series [5]: compared with 7; cited from earlier work.
The next series concerns the target mGluR5 (Rattus norvegicus, UniProt P31424). Description: stimulation of phosphoinositide hydrolysis, cloned rat receptors. In kind it is cell-based. The note with it: 10 μM.
The target of the next series is mGluR1 (Rattus norvegicus, UniProt P23385). Described as above. The series is classed as cell-based. The note with it: 10 μM.
The target of another series is NMDA. The series can be described thus: NIMH PDSP binding screen. Set-up: species or system human.

Where only a bound is given, the exact number is not on record here.

Sequence of mGluR1 in monkey brain (Macaca mulatta, UniProt I2CU04) (I2CU04 19-1195): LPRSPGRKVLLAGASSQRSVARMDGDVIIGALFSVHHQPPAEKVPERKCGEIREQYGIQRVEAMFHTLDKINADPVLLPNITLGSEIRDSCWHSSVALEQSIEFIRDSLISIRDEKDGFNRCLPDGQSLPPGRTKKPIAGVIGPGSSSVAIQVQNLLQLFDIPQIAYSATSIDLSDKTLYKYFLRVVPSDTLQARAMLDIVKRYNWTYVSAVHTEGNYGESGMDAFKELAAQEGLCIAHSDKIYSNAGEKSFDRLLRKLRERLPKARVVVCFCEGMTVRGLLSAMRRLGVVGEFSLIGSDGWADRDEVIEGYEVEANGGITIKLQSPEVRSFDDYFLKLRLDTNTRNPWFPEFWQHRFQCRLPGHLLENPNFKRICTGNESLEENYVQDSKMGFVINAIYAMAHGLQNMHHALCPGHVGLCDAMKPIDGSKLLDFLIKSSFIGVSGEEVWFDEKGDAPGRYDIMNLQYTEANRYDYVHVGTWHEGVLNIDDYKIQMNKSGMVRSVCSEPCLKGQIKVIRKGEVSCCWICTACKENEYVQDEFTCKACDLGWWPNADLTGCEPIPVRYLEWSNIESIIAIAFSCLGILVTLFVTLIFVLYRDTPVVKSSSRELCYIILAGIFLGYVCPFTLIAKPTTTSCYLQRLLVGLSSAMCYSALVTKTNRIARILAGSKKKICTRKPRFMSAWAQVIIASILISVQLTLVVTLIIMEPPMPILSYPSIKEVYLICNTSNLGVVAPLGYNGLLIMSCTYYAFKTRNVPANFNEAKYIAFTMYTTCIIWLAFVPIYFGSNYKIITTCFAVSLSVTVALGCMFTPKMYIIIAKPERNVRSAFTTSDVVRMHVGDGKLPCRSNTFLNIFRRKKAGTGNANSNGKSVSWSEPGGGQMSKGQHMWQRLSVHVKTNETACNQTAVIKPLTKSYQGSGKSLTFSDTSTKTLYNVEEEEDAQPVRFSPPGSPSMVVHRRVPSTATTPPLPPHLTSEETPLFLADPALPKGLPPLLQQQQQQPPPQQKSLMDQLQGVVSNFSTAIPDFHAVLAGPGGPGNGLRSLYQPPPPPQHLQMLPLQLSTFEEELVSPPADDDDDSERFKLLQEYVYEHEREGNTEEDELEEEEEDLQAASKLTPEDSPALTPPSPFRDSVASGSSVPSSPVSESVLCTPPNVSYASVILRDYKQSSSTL
Sequence of mGluR5 in monkey brain (A0ACM8QRY8 19-1212): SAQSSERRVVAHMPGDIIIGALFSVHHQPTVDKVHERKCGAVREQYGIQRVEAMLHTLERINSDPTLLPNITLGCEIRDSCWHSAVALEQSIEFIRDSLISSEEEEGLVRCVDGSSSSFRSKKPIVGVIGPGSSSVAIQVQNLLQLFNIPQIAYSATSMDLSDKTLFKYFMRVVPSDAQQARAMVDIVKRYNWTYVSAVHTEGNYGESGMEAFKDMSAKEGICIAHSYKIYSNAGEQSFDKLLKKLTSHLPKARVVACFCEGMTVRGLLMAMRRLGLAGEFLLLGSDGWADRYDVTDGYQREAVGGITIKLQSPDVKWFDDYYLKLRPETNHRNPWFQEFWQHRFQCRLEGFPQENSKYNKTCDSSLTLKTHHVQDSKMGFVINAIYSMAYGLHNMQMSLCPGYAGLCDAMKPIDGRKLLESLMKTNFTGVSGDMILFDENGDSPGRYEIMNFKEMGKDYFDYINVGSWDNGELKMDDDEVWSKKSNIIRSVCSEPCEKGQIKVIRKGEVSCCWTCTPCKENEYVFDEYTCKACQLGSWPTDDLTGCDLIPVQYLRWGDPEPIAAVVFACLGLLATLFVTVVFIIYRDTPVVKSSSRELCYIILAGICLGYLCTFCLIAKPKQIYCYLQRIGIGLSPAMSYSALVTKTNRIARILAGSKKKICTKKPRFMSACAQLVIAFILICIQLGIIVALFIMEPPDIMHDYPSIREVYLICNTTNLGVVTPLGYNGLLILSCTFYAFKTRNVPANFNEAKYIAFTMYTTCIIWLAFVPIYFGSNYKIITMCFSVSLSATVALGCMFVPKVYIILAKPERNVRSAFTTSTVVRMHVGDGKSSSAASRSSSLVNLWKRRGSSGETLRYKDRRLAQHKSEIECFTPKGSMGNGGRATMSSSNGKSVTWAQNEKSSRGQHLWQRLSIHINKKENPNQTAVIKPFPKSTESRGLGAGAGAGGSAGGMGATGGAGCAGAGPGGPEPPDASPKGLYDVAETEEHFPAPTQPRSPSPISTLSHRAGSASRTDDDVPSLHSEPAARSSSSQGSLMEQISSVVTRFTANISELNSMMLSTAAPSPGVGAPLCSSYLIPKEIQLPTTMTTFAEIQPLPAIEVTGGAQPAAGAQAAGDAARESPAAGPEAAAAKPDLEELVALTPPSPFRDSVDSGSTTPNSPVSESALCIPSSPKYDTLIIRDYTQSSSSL
Sequence of mGluR5 (P31424 21-1203): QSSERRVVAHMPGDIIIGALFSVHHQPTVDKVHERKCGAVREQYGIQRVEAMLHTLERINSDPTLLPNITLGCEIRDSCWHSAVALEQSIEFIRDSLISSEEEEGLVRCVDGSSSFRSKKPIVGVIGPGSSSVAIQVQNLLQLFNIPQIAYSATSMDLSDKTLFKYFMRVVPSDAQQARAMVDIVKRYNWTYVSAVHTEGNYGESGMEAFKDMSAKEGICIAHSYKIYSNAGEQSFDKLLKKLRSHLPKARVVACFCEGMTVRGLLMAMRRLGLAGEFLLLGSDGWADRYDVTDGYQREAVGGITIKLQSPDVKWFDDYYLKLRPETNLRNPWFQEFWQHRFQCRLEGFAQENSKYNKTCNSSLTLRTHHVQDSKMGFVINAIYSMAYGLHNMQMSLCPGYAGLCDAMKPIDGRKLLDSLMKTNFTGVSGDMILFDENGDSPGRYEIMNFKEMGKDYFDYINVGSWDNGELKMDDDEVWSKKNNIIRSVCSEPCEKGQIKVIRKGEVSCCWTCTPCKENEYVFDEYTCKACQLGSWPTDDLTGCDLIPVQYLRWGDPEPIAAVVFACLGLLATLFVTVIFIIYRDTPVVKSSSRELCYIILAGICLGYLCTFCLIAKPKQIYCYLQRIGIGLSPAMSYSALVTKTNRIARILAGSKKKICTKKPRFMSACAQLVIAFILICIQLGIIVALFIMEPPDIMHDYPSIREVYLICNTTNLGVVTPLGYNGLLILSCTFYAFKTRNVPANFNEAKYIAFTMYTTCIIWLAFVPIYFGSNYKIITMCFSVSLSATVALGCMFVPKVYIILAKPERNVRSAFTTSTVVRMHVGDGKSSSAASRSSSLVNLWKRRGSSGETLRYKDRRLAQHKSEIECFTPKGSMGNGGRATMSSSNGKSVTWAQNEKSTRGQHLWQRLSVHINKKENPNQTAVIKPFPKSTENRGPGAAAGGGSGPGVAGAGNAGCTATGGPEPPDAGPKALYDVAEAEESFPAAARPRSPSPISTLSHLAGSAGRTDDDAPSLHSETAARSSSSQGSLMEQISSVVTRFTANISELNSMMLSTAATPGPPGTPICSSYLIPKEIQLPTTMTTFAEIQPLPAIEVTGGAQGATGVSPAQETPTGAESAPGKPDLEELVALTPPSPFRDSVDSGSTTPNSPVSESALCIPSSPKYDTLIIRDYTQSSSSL
Sequence of mGluR1 (P23385 19-1199): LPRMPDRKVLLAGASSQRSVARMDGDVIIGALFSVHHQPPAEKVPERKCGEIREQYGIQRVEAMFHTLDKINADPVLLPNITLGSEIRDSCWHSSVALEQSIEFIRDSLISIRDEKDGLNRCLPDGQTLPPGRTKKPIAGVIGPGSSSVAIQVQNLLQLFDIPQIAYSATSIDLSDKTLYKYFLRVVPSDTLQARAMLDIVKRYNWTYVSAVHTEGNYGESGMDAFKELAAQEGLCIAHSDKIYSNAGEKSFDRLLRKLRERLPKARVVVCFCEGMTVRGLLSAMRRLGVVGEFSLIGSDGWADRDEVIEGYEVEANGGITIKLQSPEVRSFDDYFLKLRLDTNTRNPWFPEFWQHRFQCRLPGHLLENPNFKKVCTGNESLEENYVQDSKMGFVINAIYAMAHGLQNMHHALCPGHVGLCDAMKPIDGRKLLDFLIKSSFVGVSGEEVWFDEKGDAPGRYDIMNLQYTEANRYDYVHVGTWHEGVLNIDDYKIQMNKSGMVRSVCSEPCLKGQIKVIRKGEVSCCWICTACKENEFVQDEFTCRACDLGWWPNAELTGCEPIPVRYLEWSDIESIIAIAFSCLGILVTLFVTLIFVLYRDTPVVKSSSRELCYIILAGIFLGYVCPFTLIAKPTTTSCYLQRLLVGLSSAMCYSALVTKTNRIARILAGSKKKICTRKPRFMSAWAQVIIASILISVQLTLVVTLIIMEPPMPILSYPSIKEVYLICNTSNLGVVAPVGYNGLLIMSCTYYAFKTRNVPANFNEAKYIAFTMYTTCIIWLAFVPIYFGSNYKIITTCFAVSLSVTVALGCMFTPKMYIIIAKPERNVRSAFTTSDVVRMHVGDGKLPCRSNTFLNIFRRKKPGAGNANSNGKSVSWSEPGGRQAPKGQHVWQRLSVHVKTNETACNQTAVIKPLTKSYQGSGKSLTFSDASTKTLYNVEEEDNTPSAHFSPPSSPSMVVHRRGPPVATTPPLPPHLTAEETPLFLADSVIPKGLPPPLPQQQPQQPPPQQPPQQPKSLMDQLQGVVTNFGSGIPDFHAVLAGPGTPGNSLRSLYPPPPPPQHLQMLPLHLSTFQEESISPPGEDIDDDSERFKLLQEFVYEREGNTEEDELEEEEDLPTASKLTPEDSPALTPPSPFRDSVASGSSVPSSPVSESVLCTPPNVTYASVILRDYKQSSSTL

As for `CNc1cc(-c2csc(N(C)C(=O)c3ccc([18F])cc3)n2)ncn1` [[^18F]11, [^18F]4-Fluoro-N-methyl-N-(4-(6-(methylamino)pyrimidin-4-yl)thiazol-2-yl)benzamide], in the series on mGluR1 in monkey brain [1] (all PET experiments in monkey), the “radiodefluorination (radioactivity uptake in skull)” value is on record as “negligible”. Moreover, the “decrease of cerebellum radioactivity from peak” value with mGluR1 in monkey brain [1] (baseline, at end of 2-h scan (120 min)) is listed as 47%.

For the compound `Cc1nc(C#Cc2cccnc2)cs1` [compound 18, 3-((2-methyl-4-thiazolyl)ethynyl)pyridine], the “effect on [^18F]11 brain washout kinetics after challenge” value at mGluR5 in monkey brain was “no change in the washout kinetics from any brain region”.

Broadly, the IC50 is the concentration at which inhibition is half-maximal. As to `CC(C)Nc1cc(-c2csc(N(C)C(=O)c3ccc(F)cc3)n2)ncn1` [[^18F]7, reference compound], in the series on human mGluR1 [2], the IC50 was 5.1 nM.

With `CO[C@H]1CC[C@@H](C(=O)c2ccc3nc4c(cc3c2)CCCO4)CC1` [compound 17], the “distribution of [^18F]11 radioactivity across brain after preblock” value on mGluR1 in monkey brain [3] (3 mg/kg i.v. at 5 min before [^18F]11) is “low and uniform”. The “effect on [^18F]11 brain radioactivity after challenge” value on mGluR1 in monkey brain [3] (3 mg/kg i.v. at 30 min after [^18F]11, second monkey) was “rapid decrease in radioactivity at all mGluR1-containing regions”.

As for `Cc1c(-c2ccc(O[11CH3])cc2)nsc1NC(=O)[C@@H]1C[C@H]1C` [[^11C]6], the “effective binding potential (VS)” value was 0.0161 in the series on human mGluR1 [4] and 0.683 in the series on rat mGluR1.

As a reminder, the Ki is the dissociation constant of the complex between target and ligand, obtained from inhibition or displacement. As for `CNc1cc(-c2csc(N(C)C(=O)c3ccc(F)cc3)n2)ncn1` [compound 11, 4-Fluoro-N-methyl-N-(4-(6-(methylamino)pyrimidin-4-yl)thiazol-2-yl)benzamide], in the series on human mGluR1 [2], the half-inhibitory concentration (IC50) is 1.8 nM. Besides, the Ki on GABAA, at rat BZP site and at NMDA was over 10000 nM each time. Further, the “extent of metabolism in human liver microsomes” value in series [5] is on record as “metabolized more extensively than 7”. Also, at mGluR5, the “efficacy at mGluR5 (stimulation of phosphoinositide hydrolysis)” value was “antagonist”. On mGluR1, the “efficacy at mGluR1 (stimulation of phosphoinositide hydrolysis)” value is “antagonist”.
